In PMC12186262 (ACS Chemical Biology, 2025):
Read-outs that look alike come from different tables or passages of the source.

Key:
WT RBD of SARS-CoV-2 SgP [1] = molecular target: T1, WT RBD of SARS-CoV-2 SgP (Severe acute respiratory syndrome coronavirus 2, UniProt P0DTC2); format: binding; details: read-out: KD (microarray, sigmoidal fit)
[2] = molecular target: wild-type (WT) His-tagged SARS-CoV-2 SgP RBD (Severe acute respiratory syndrome coronavirus 2, UniProt P0DTC2); format: binding; details: for Mean fluorescence intensity (MFI): glycans printed at 100 µM, MFI scaled to positive control = 100, WT RBD 20 µg/mL
WT RBD of SARS-CoV-2 SgP [3] = molecular target: T1, WT RBD of SARS-CoV-2 SgP; details: read-out: KD (solution fluorescence titration); pH 7.4
[4] = microarray, WT RBD, library A1-A19

NOCCOCCO[C@@H]1O[C@@H](COS(=O)(=O)O)[C@@H](O[C@@H]2O[C@@H](COS(=O)(=O)O)[C@@H](OS(=O)(=O)O)[C@H](O)[C@H]2OS(=O)(=O)O)[C@H](O)[C@H]1OS(=O)(=O)O [B32]
Kd (WT RBD of SARS-CoV-2 SgP [1]): 243 ± 41 nM

NOCCOCCO[C@@H]1O[C@@H](COS(=O)(=O)O)[C@@H](OS(=O)(=O)O)[C@H](O)[C@H]1OS(=O)(=O)O [B30]
MFI relative to nonsulfated monosaccharide B24 and 3-O-sulfated B28 ([2]; microarray, WT RBD): 4 fold

NCCCO[C@@H]1O[C@@H](C(=O)O)[C@@H](O[C@H]2O[C@H](CO)[C@@H](O[C@@H]3O[C@@H](C(=O)O)[C@@H](O[C@H]4O[C@H](CO)[C@@H](O)[C@H](OS(=O)(=O)O)[C@H]4N)[C@H](O)[C@H]3O)[C@H](OS(=O)(=O)O)[C@H]2N)[C@H](O)[C@H]1O [A9]
Recognition by WT RBD better than the next best molecule (A10) [2, 4]: > 250%

NOCCOCCO[C@@H]1O[C@@H](COS(=O)(=O)O)[C@@H](O[C@@H]2O[C@@H](COS(=O)(=O)O)[C@@H](O[C@@H]3O[C@@H](COS(=O)(=O)O)[C@@H](O[C@@H]4O[C@@H](COS(=O)(=O)O)[C@@H](OS(=O)(=O)O)[C@H](O)[C@H]4OS(=O)(=O)O)[C@H](O)[C@H]3OS(=O)(=O)O)[C@H](O)[C@H]2OS(=O)(=O)O)[C@H](O)[C@H]1OS(=O)(=O)O [B34]
Kd (WT RBD of SARS-CoV-2 SgP [3]): 61 ± 8 nM | Kd (WT RBD of SARS-CoV-2 SgP [1]): 201 ± 64 nM

NCCCO[C@@H]1O[C@@H](C(=O)O)[C@@H](O[C@H]2O[C@H](CO)[C@@H](O[C@@H]3O[C@@H](C(=O)O)[C@@H](O[C@H]4O[C@H](CO)[C@@H](O)[C@H](OS(=O)(=O)O)[C@H]4N)[C@H](O)[C@H]3OS(=O)(=O)O)[C@H](OS(=O)(=O)O)[C@H]2N)[C@H](O)[C@H]1OS(=O)(=O)O [A13]
Mean fluorescence intensity (MFI) [2]: lower MFI in comparison to A9

NCCCO[C@@H]1O[C@H](C(=O)O)[C@@H](O[C@H]2O[C@H](COS(=O)(=O)O)[C@@H](O)[C@H](OS(=O)(=O)O)[C@H]2NS(=O)(=O)O)[C@H](F)[C@H]1O [B22]
Mean fluorescence intensity (MFI) [2]: > 30

NOCCOCCO[C@@H]1O[C@@H](C(=O)O)[C@@H](OS(=O)(=O)O)[C@H](O)[C@H]1OS(=O)(=O)O [A16]
Binding signal relative to closest neighbors [2, 4]: ~3 fold

NCCCO[C@@H]1O[C@H](C(=O)O)[C@@H](O[C@H]2O[C@H](COS(=O)(=O)O)[C@@H](O)[C@H](OS(=O)(=O)O)[C@H]2NS(=O)(=O)O)[C@H](F)[C@H]1OS(=O)(=O)O [B23]
Mean fluorescence intensity (MFI) [2]: > 30

CC(=O)N[C@H]1[C@@H](O[C@H]2[C@H](F)[C@@H](OS(=O)(=O)O)[C@H](OCCCN)O[C@@H]2C(=O)O)O[C@H](COS(=O)(=O)O)[C@@H](O)[C@@H]1OS(=O)(=O)O [B20]
Mean fluorescence intensity (MFI) [2]: > 30

NOCCOCCO[C@@H]1O[C@@H](COS(=O)(=O)O)[C@@H](O[C@@H]2O[C@@H](COS(=O)(=O)O)[C@@H](O[C@@H]3O[C@@H](COS(=O)(=O)O)[C@@H](OS(=O)(=O)O)[C@H](O)[C@H]3OS(=O)(=O)O)[C@H](O)[C@H]2OS(=O)(=O)O)[C@H](O)[C@H]1OS(=O)(=O)O [B33]
Kd (WT RBD of SARS-CoV-2 SgP [1]): 307 ± 38 nM
